Laboratory results as given in publication PMC6476306 (Biochemistry, 2017).

target: T1, S. aureus DnaG primase CTD (Staphylococcus aureus, UniProt P63964); assay: 2D 1H-15N HSQC NMR titration; format: binding
T1 sequence (P63964 463-605): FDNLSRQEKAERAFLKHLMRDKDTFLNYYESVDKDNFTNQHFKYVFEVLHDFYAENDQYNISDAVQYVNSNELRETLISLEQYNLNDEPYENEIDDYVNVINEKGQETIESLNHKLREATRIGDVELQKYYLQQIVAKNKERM

Question: For `Nc1ncnc2c1ncn2[C@@H]1O[C@H](CO)[C@@H](O)[C@H]1O` [adenosine], which Kd is on record?
Answer: > 4 mM

Question: Which Kd does the source give for `O=c1c(O)c(-c2cc(O)c(O)c(O)c2)oc2cc(O)cc(O)c12` [myricetin] here?
Answer: > 4 mM

Question: For `Nc1nc2c(ncn2COCCO)c(=O)[nH]1` [acycloguanosine], which Kd is on record?
Answer: > 4 mM
